Measured values: ChEMBL document CHEMBL2016560, “Mannitol Bis-phosphate Based Inhibitors of Fructose 1,6-Bisphosphate Aldolases” (ACS Med Chem Lett, 2011)
Calls of active or inactive are those of the source. The calls are words filed in the database; no cut-off is given here.

Assays:
[1] = target: T1, Fructose-bisphosphate aldolase, glycosomal (Trypanosoma brucei brucei, UniProt P07752); experiment: Inhibition of His-tagged recombinant Trypanosoma brucei fructose bis-phosphate aldolase expressed in Escherichia coli using FBP as substrate after 5 to 15 mins
T1 sequence (P07752 whole entry): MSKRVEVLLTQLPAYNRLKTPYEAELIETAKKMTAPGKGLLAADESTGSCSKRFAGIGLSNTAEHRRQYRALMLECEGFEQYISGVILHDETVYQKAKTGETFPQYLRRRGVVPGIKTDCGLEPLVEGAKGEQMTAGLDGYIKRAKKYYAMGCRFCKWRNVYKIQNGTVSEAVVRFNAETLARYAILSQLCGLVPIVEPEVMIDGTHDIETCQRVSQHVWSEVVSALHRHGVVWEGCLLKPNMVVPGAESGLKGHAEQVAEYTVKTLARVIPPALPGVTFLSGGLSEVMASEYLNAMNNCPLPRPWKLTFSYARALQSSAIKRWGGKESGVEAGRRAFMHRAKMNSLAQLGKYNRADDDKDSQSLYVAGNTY

[2] = target: T2, Fructose-bisphosphate aldolase A (Oryctolagus cuniculus, UniProt P00883); experiment: Inhibition of rabbit muscle FBA assessed as inhibition of FBP cleavage by spectrophotometry
T2 sequence (P00883 whole entry): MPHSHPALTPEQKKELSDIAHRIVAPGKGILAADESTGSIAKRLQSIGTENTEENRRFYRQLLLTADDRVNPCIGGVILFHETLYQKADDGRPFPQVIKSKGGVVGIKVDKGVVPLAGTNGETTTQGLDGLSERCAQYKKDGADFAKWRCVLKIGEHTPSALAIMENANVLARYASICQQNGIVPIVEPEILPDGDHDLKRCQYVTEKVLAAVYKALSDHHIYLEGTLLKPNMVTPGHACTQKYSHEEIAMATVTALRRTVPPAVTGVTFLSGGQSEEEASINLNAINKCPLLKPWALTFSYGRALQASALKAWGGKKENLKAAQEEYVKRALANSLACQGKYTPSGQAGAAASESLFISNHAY

[3] = target: T3, Fructose-bisphosphate aldolase, glycosomal (Trypanosoma brucei brucei) (UniProt P07752); experiment: Competitive inhibition of His-tagged recombinant Trypanosoma brucei fructose bis-phosphate aldolase expressed in Escherichia coli by double-reciprocal plot analysis
T3 sequence (whole entry): T1 sequence (P07752 whole entry)

Structure (SMILES) | IC50 [1] [µM] | IC50 [2] [µM] | inhibition mode (competitive) [3]
O=C(COP(=O)(O)O)[C@@H](O)[C@H](O)[C@H](O)COP(=O)(O)O (mixture of isomers) | 10 | 13 | –
CC[C@@](O)(COP(=O)(O)O)[C@@H](O)[C@H](O)[C@H](O)COP(=O)(O)O | 130 | 244 | Active
O=P(O)(O)OC[C@@H](O)[C@@H](O)[C@H](O)[C@@H](COP(=O)(O)O)OCCCc1ccccc1 | 31 | 21 | Active
O=P(O)(O)OC[C@@H](O)[C@@H](O)[C@H](O)[C@@](O)(CCCc1ccccc1)COP(=O)(O)O | 56 | 137 | Active
CCCCCO[C@H](COP(=O)(O)O)[C@@H](O)[C@H](O)[C@H](O)COP(=O)(O)O | 117 | 157 | Active
CCCCC[C@@](O)(COP(=O)(O)O)[C@@H](O)[C@H](O)[C@H](O)COP(=O)(O)O | 15 | 17 | Active
CO[C@H](COP(=O)(O)O)[C@@H](O)[C@H](O)[C@H](O)COP(=O)(O)O | 2 | 7.5 | Active
CCO[C@H](COP(=O)(O)O)[C@@H](O)[C@H](O)[C@H](O)COP(=O)(O)O | 51 | 64 | Active
O=P(O)(O)OC[C@@H](O)[C@@H](O)[C@H](O)[C@H](O)COP(=O)(O)O | 9.4 | 8 | –
